Measured values reported in ChEMBL document CHEMBL4699523, “Predicting the Human Hepatic Clearance of Acidic and Zwitterionic Drugs” (J Med Chem, 2020).

Tests used:
[1] = rat, in vivo, iv, 1 mg/kg
[2] = cynomolgus monkey, in vivo, iv, 1 mg/kg
[3] = human, in vivo, iv
Description: Hepatic clearance in human administered through iv dosing

in vivo [4] = settings: Wistar Hannover, rat, blood and plasma, iv
Description: Ratio of drug level in Wistar Hannover rat blood to plasma administered through iv dosing by LC-MS/MS analysis

in vivo [5] = settings: cynomolgus monkey, blood and plasma, iv
Description: Ratio of drug level in cynomolgus monkey blood to plasma administered through iv dosing by LC-MS/MS analysis

physchem [6] = assay: physchem
in vitro [7] = settings: dog, MDCK, pH 7.4
Description: Apparent permeability in dog MDCKII-LE cells at pH 7.4

physchem [8] = settings: buffer, pH 7.4
in vitro [9] = settings: human, cryopreserved hepatocytes
in vitro [10] = settings: rat, plasma
Description: Fraction unbound in rat plasma

in vitro [11] = settings: cynomolgus monkey, plasma
Description: Fraction unbound in cynomolgus monkey plasma

clinical = settings: human, blood and plasma, iv
Description: Ratio of drug level in human blood to plasma administered through iv dosing by LC-MS/MS analysis

in vitro [12] = settings: human, plasma
Description: Fraction unbound in human plasma

physchem [13] = assay: physchem; remark: listed apart in the source
[14] = Ratio of drug level in cynomolgus monkey blood to plasma administered through oral dosing by LC-MS/MS analysis; format: ADME, cell-free, Macaca fascicularis; settings: blood and plasma
[15] = Ratio of drug level in human blood to plasma administered through oral dosing by LC-MS/MS analysis; format: ADME, cell-free; settings: blood and plasma
[16] = Hepatic clearance in cynomolgus monkey administered through oral dosing; format: ADME, Macaca fascicularis; settings: in vivo
[17] = Hepatic clearance in human administered through oral dosing; format: ADME

SMILES | CLH [1] | CLH [2] | CLH [3] | blood plasma ratio (in vivo [4]) | blood plasma ratio (in vivo [5]) | pKa at 0.3 h (physchem [6]) | Papp (in vitro [7]) | logD (physchem [8]) | CLint scaled at 2 h, 1 µM (in vitro [9]) | fraction unbound (in vitro [10]) | fraction unbound (in vitro [11]) | blood plasma ratio (clinical) | fraction unbound (in vitro [12]) | pKa at 0.3 h (physchem [13]) | blood plasma ratio [14] | blood plasma ratio [15] | CLH [16] | CLH [17]
CCCc1nc2c(C)cc(-c3nc4ccccc4n3C)cc2n1Cc1ccc(-c2ccccc2C(=O)O)cc1 | 4.3 mL/min/kg | 9.2 mL/min/kg | 10.2 mL/min/kg | 0.65 | 0.61 | 4.2 | 12 ×10⁻⁶ cm/s | 2.4 | 39 mL/min/kg | 0.006 | 0.0125 | 0.61 | 0.006 | 3.2 |  |  |  | 
CCCCc1nc(C)c(CC(=S)N(C)C)c(=O)n1Cc1ccc(-c2ccccc2-c2nnn[nH]2)cc1 |  | 23 mL/min/kg | 9.6 mL/min/kg |  | 0.588 | 4.3 | 1.2 ×10⁻⁶ cm/s | 0.9 | 17 mL/min/kg |  | 0.0177 | 0.726 | 0.0288 | 2.7 |  |  |  | 
CN(C)C(=O)CCS[C@H](SCCC(=O)O)c1cccc(/C=C/c2ccc3ccc(Cl)cc3n2)c1 |  | 10.1 mL/min/kg | 0.91 mL/min/kg |  | 0.581 | 4.4 | 8.5 ×10⁻⁶ cm/s | 1.5 | 61 mL/min/kg |  | 0.00116 | 0.655 | 0.00142 | 3.8 |  |  |  | 
Cc1cc(O[C@H](CCC(F)(F)F)c2ccc(C(=O)NCCC(=O)O)cc2)cc(C)c1-c1ccc(C(C)(C)C)cc1 |  |  |  |  |  | 4.4 |  | > 3.5 | 1680 mL/min/kg |  | 5.6e-05 |  | 3.6e-05 |  | 0.823 | 0.605 | 0.29 mL/min/kg | 0.078 mL/min/kg
Cc1ccc(S(=O)(=O)NCCc2ccc(Oc3ccc(F)c(F)c3)cc2)cc1C(=O)O |  |  |  |  |  | 3.4 | 7.3 ×10⁻⁶ cm/s | 1.6 | 19 mL/min/kg |  | 0.00107 |  | 0.00229 |  | 0.562 | 0.55 | 6.1 mL/min/kg | 0.72 mL/min/kg
COc1ccccc1Oc1c(NS(=O)(=O)c2ccc(C(C)(C)C)cc2)nc(-c2ncccn2)nc1OCCO [BOSENTAN] | 15.9 mL/min/kg | 33.1 mL/min/kg | 2.2 mL/min/kg | 0.69 | 1.19 | 4.9 | 7.4 ×10⁻⁶ cm/s | 1.2 | 16 mL/min/kg | 0.0121 | 0.0422 | 0.668 | 0.0285 |  |  |  |  | 
COCc1c(C(C)C)nc(C(C)C)c(/C=C/[C@@H](O)C[C@@H](O)CC(=O)O)c1-c1ccc(F)cc1 [CERIVASTATIN] | 8.7 mL/min/kg | 19.7 mL/min/kg | 2.7 mL/min/kg |  |  | 4.7 |  |  | 43 mL/min/kg | 0.0179 | 0.0153 |  | 0.0176 | 5.6 |  |  |  | 
COc1ccccc1[C@H](Cn1c(=O)n(C(C)(C)C(=O)O)c(=O)c2c(C)c(-c3ncco3)sc21)OC1CCOCC1 [FIRSOCOSTAT] |  |  |  |  |  |  | 5.5 ×10⁻⁶ cm/s | 1.1 | 23 mL/min/kg |  | 0.0284 |  | 0.0172 |  | 0.623 | 0.655 | 11.3 mL/min/kg | 10 mL/min/kg
COc1ccc(Cl)cc1C(=O)NCCc1ccc(S(=O)(=O)NC(=O)NC2CCCCC2)cc1 [GLYBURIDE] | 1.2 mL/min/kg | 5.8 mL/min/kg | 1.2 mL/min/kg |  |  |  | 14 ×10⁻⁶ cm/s |  | 69 mL/min/kg | 0.0013 | 0.00179 |  | 0.00217 |  |  |  |  | 
CCCCC1=NC2(CCCC2)C(=O)N1Cc1ccc(-c2ccccc2-c2nnn[nH]2)cc1 [IRBESARTAN] |  | 12.1 mL/min/kg | 2.1 mL/min/kg |  | 0.55 | 3.5 | 8.6 ×10⁻⁶ cm/s | 1.3 |  |  | 0.0126 | 0.603 | 0.0155 | 4.6 |  |  |  | 
O=C(c1ccccc1)c1ccc2n1CCC2C(=O)O (stereo not drawn) [KETOROLAC] | 1.3 mL/min/kg | 1.2 mL/min/kg | 0.19 mL/min/kg | 0.55 | 0.687 |  | 15 ×10⁻⁶ cm/s | -0.6 | 3.1 mL/min/kg | 0.0216 | 0.0148 | 0.792 | 0.0264 |  |  |  |  | 
Cc1ccc(NC(=O)C2(c3ccc4c(c3)OC(F)(F)O4)CC2)nc1-c1cccc(C(=O)O)c1 [LUMACAFTOR] |  |  |  |  |  | 4.2 | 25 ×10⁻⁶ cm/s | 2.6 | 27 mL/min/kg |  | 0.0045 |  | 0.0032 |  | 0.575 | 0.575 | 0.72 mL/min/kg | 0.26 mL/min/kg
CCC[C@H](c1ccc(C(=O)NCCC(=O)O)cc1)[C@H](c1ccc(Cl)cc1)c1c[nH]c2c(F)cc(C)cc12 [MK-3577] |  |  |  |  |  | 4.1 |  | > 3.5 | 571 mL/min/kg |  | 0.00023 |  | 0.00025 |  | 0.95 | 0.55 | 9.3 mL/min/kg | 4.9 mL/min/kg
CC(C)(O)c1ccccc1CC[C@@H](SCC1(CC(=O)O)CC1)c1cccc(/C=C/c2ccc3ccc(Cl)cc3n2)c1 [MONTELUKAST] |  | 1.3 mL/min/kg | 0.57 mL/min/kg |  |  |  | 6 ×10⁻⁶ cm/s |  |  |  | 0.004 |  | 0.004 | 2.3 |  |  |  | 
Nc1[nH]ncc1-c1cc(Cl)ccc1Oc1cc(F)c(S(=O)(=O)Nc2cscn2)cc1Cl [PF-05089771] | 6 mL/min/kg | 1.8 mL/min/kg | 0.59 mL/min/kg |  |  | 6 |  | 2.3 | 40 mL/min/kg | 0.0133 | 0.00164 |  |  | 2.9 |  |  |  | 
Cc1nn(-c2cnc(OCC(C)C)c(Cl)c2)c2ccc(C(=O)NS(C)(=O)=O)cc12 [PF-05241328] | 3.1 mL/min/kg | 30.1 mL/min/kg | 5.7 mL/min/kg | 0.55 | 0.56 | 3.6 | 3.9 ×10⁻⁶ cm/s | 2 | 37 mL/min/kg | 0.001 | 0.002 | 0.56 | 0.002 |  |  |  |  | 
O=C(O)C[C@H](O)C[C@H](O)/C=C/c1c(C2CC2)nc2ccccc2c1-c1ccc(F)cc1 [PITAVASTATIN] | 7.1 mL/min/kg | 17.8 mL/min/kg | 5.6 mL/min/kg | 0.65 | 0.65 | 4.7 | 8.5 ×10⁻⁶ cm/s | 1.2 | 31 mL/min/kg | 0.008 | 0.0263 | 0.65 | 0.008 | 5.1 |  |  |  | 
CC[C@H](C)C(=O)O[C@H]1C[C@H](O)C=C2C=C[C@H](C)[C@H](CC[C@@H](O)C[C@@H](O)CC(=O)O)[C@H]21 [PRAVASTATIN] | 19.3 mL/min/kg | 34.6 mL/min/kg | 7.3 mL/min/kg | 0.595 | 0.651 | 4.3 | 0.46 ×10⁻⁶ cm/s | -0.4 | 0.77 mL/min/kg | 0.537 | 0.649 | 0.55 | 0.634 |  |  |  |  | 
CCOc1cc(CC(=O)N[C@@H](CC(C)C)c2ccccc2N2CCCCC2)ccc1C(=O)O [REPAGLINIDE] |  | 10.7 mL/min/kg | 7.4 mL/min/kg |  | 0.679 | 4.4 | 19 ×10⁻⁶ cm/s | 2.3 | 98 mL/min/kg |  | 0.0124 | 0.851 | 0.0124 | 6 |  |  |  | 
CC(C)c1nc(N(C)S(C)(=O)=O)nc(-c2ccc(F)cc2)c1/C=C/[C@@H](O)C[C@@H](O)CC(=O)O [ROSUVASTATIN] | 28.4 mL/min/kg | 27.9 mL/min/kg | 6.8 mL/min/kg | 0.588 | 0.735 | 4.3 | 0.89 ×10⁻⁶ cm/s | 0.1 | 0.86 mL/min/kg | 0.0421 | 0.155 | 0.569 | 0.158 |  |  |  |  | 
Cn1cc(C(=O)O)c2ccc(N3CCC(OCc4c(-c5c(Cl)cccc5Cl)noc4C4CC4)CC3)cc21 [TERN-101] |  |  |  |  |  |  | 17 ×10⁻⁶ cm/s | 2.7 | 111 mL/min/kg |  | 0.0049 |  | 0.0122 |  | 1.1 | 0.612 | 6 mL/min/kg | 8.8 mL/min/kg
